# What was measured:
# MSTN [1] = format: cell-based; details: HepG2, (SBE)4-luc; MSTN 10 ng/ml, 8 h; MID-35 3 μM or SB-431542 10 μM, 1 h pretreatment; n = 3
# TGF‐β = format: cell-based; details: HepG2, (SBE)4-luc; TGF-β 5 ng/ml, 8 h; MID-35 3 μM or SB-431542 10 μM, 1 h pretreatment; n = 3
# GDF‐11 = format: cell-based; details: HepG2, (SBE)4-luc; GDF-11 10 ng/ml, 8 h; MID-35 3 μM or SB-431542 10 μM, 1 h pretreatment; n = 3
# MSTN [2] = test: Smad2/3 nuclear localization induced by MSTN in C2C12 cells; format: cell-based; details: MID-35 3 μM or SB-431542 10 μM preincubated 1 h with MSTN 10 ng/ml
# ALK4 = details: ref [26]; cited from earlier work
# ALK7 = details: ref [26]; cited from earlier work
# ALK5 = details: ref [26]; cited from earlier work
# [3] = tested on: cancer cachexia model mice (LLC cells); test: LLC cancer cachexia model mice, MID-35 and/or anamorelin; format: in vivo, C57BL/6J mice; details: MID-35 i.m. and/or anamorelin p.o.; 22 days after LLC transplantation; Figure 6B
# [4] = men who received 100 mg in a clinical trial; ref not given; cited from earlier work
# cancer cachexia patients = details: cited from earlier work
# ghrelin receptor = details: ref [8]; cited from earlier work
# vascular function = details: via binding to BMP9 and BMP10; ref [36]; cited from earlier work
# [5] = patients with non-small-cell lung cancer, ref [9], [10], [11]
molecule,measurement,setting,value
NC(=O)c1ccc(-c2nc(-c3ccc4c(c3)OCO4)c(-c3ccccn3)[nH]2)cc1 [SB‐431542],inhibition of MSTN-induced transcriptional activity,MSTN [1],suppressed
same,inhibition of TGF-β-induced reporter activity,TGF‐β,suppressed
same,inhibition of GDF-11-induced reporter activity,GDF‐11,suppressed
same,Smad2 nuclear accumulation,MSTN [2],completely blocked
same,ALK4 kinase inhibition,ALK4,known kinase inhibitor
same,ALK7 kinase inhibition,ALK7,known kinase inhibitor
same,ALK5 kinase inhibition,ALK5,known kinase inhibitor
CN(C)N(C)C(=O)[C@@]1(Cc2ccccc2)CCCN(C(=O)[C@@H](Cc2c[nH]c3ccccc23)NC(=O)C(C)(C)N)C1 [anamorelin],gastrocnemius weight per body weight without tumor,[3],increased
same,plasma Cmax average,[4],707 ± 307 ng/mL
same,lean body mass,"cancer cachexia patients; clinical trial, cancer cachexia patients, ref not given",increased lean body mass
same,appetite,"cancer cachexia patients; patients with cancer cachexia, oral, ref [8]",augments appetite
same,QOL,cancer cachexia patients; [5],improvement of QOL
same,weight gain,cancer cachexia patients; [5],contribute to weight gain
same,ghrelin receptor activity,ghrelin receptor,ghrelin receptor agonist
"ActRIIB: activin receptor type IIB; binds to both BMP9 and BMP10 (protein, UniProt Q13705 19-512, looked up) Activin receptor type-2B: SGRGEAETRECIYYNANWELERTNQSGLERCEGEQDKRLHCYASWRNSSGTIELVKKGCWLDDFNCYDRQECVATEENPQVYFCCCEGNFCNERFTHLPEAGGPEVTYEPPPTAPTLLTVLAYSLLPIGGLSLIVLLAFWMYRHRKPPYGHVDIHEDPGPPPPSPLVGLKPLQLLEIKARGRFGCVWKAQLMNDFVAVKIFPLQDKQSWQSEREIFSTPGMKHENLLQFIAAEKRGSNLEVELWLITAFHDKGSLTDYLKGNIITWNELCHVAETMSRGLSYLHEDVPWCRGEGHKPSIAHRDFKSKNVLLKSDLTAVLADFGLAVRFEPGKPPGDTHGQVGTRRYMAPEVLEGAINFQRDAFLRIDMYAMGLVLWELVSRCKAADGPVDEYMLPFEEEIGQHPSLEELQEVVVHKKMRPTIKDHWLKHPGLAQLCVTIEECWDHDAEARLSAGCVEERVSLIRRSVNGTTSDCLVSLVTSVTNVDLPPKESSI",vascular side-effects,vascular function,vascular side‐effects
